Structures can show the parent of a compound that is named as a salt.
What was measured:
[1] = Hygroscopicity test, dynamic water adsorption (DVS); type: physicochemical
Method: Take about 10 mg of the Amorphous form XIV sample of the compound of formula I for dynamic water adsorption (DVS) test.

[2] = Stability test of amorphous form XIV (40° C., high humidity 92.5% RH, light; content, related substances); type: physicochemical
Method: Pack the amorphous sample with nitrogen, shading, and moisture-proof, and place it under 40° C., high humidity 92.5% RH, light conditions, and take samples at 0 days/5 days/10 days to investigate its content, related substances and crystal forms (light conditions: total illuminance≥1.2×106 Lux·hr, near ultraviolet energy≥200 w·hr/m2).

[3] = Stability test of salt form screening (25° C., R.T./75% RH, light; HPLC, XRPD); type: physicochemical
Method: Take an appropriate amount of the compound into an 8 mL glass bottle, and then place it at room temperature (25° C., open), high humidity (room temperature/75% RH, open) and light (room temperature, white light: 6980 lux, UV 282 μW/cm2). Take samples for testing on the 5th, 10th, and 30th day (HPLC, XRPD).

[4] = Physicochemical stability of crystalline form VI, one week storage (HPLC purity, XRPD form)
[5] = 10 Days, high humidity 92.5% RH
[6] = Light, room temperature, 5 Days
[7] = Light, room temperature, 10 Days

Compound	Total impurities (%) ([3]; 25° C., open, 5 Days)	Total impurities (%) ([3]; 25° C., open, 10 Days)	Total impurities (%) ([3]; 25° C., open, 30 Days)	Total impurities (%) ([3]; Initial, 0 Days)	Total impurities (%) [3, 6] [%]	Total impurities (%) [3, 7] [%]	Total impurities (%) ([3]; R.T./75% RH, open, 5 Days)	Total impurities (%) ([3]; R.T./75% RH, open, 10 Days)	Total impurities (%) ([3]; R.T./75% RH, open, 30 Days)	further results
Cc1c(S(C)(=O)=O)c(-c2cc(F)cc(N3CCN(c4ccc(NS(=O)(=O)c5ccc(N[C@H](CCN6CCC(C(=O)OCCCP(=O)(O)O)CC6)CSc6ccccc6)c(S(=O)(=O)C(F)(F)F)c5)cc4)CC3)c2)c(-c2ccc(Cl)cc2)n1C(C)C [Amorphous XIV]										Hygroscopicity classification ([1]; DVS, 80% RH): Hygroscopic; Moisture gain (80% RH) ([1]; DVS, 80% RH): 4.83%; water absorption during storage ([1]; conclusion from DVS): easily absorb water; physical and chemical stability (summary statement) [2]: good physical and chemical stability; Content(%) ([2]; 0 Days): 99.5%; Total impurities (%) ([2]; 0 Days): 0.39%; Content(%) ([2]; 5 Days, 40° C.): 100.3%; Total impurities (%) ([2]; 5 Days, 40° C.): 0.59%; Content(%) ([2]; 5 Days, high humidity 92.5% RH): 100.7%; Total impurities (%) ([2]; 5 Days, high humidity 92.5% RH): 0.37%; Content(%) ([2]; 5 Days, light): 100.4%; Total impurities (%) ([2]; 5 Days, light): 0.43%; Content(%) ([2]; 10 Days, 40° C.): 99.7%; Total impurities (%) ([2]; 10 Days, 40° C.): 0.64%; Content(%) [2, 5]: 99.7%; Total impurities (%) [2, 5]: 0.39%; Content(%) ([2]; 10 Days, light): 100.1%; Total impurities (%) ([2]; 10 Days, light): 0.41%; stability under high humidity and light conditions ([2]; packed with nitrogen, shading, moisture-proof): stable; stability to heat ([2]; packed with nitrogen, shading, moisture-proof, 40° C.): sensitive to heat
Cc1c(S(C)(=O)=O)c(-c2cc(F)cc(N3CCN(c4ccc(NS(=O)(=O)c5ccc(N[C@H](CCN6CCC(C(=O)OCCCP(=O)(O)O)CC6)CSc6ccccc6)c(S(=O)(=O)C(F)(F)F)c5)cc4)CC3)c2)c(-c2ccc(Cl)cc2)n1C(C)C [Amorphous form XII of potassium salt]	1.63	1.58	1.86	1.40	2.09	2.69	2.25	2.98	6.11	
Cc1c(S(C)(=O)=O)c(-c2cc(F)cc(N3CCN(c4ccc(NS(=O)(=O)c5ccc(N[C@H](CCN6CCC(C(=O)OCCCP(=O)(O)O)CC6)CSc6ccccc6)c(S(=O)(=O)C(F)(F)F)c5)cc4)CC3)c2)c(-c2ccc(Cl)cc2)n1C(C)C [Amorphous form XIII of sodium salt]	1.89	1.94	2.29	1.65	2.20	3.55	2.45	3.08	6.31	
Cc1c(S(C)(=O)=O)c(-c2cc(F)cc(N3CCN(c4ccc(NS(=O)(=O)c5ccc(N[C@H](CCN6CCC(C(=O)OCCCP(=O)(O)O)CC6)CSc6ccccc6)c(S(=O)(=O)C(F)(F)F)c5)cc4)CC3)c2)c(-c2ccc(Cl)cc2)n1C(C)C [Amorphous form XV of maleate salt]	0.79	0.89	1.23	0.73	1.33	1.94	1.59	2.59	7.00	
Cc1c(S(C)(=O)=O)c(-c2cc(F)cc(N3CCN(c4ccc(NS(=O)(=O)c5ccc(N[C@H](CCN6CCC(C(=O)OCCCP(=O)(O)O)CC6)CSc6ccccc6)c(S(=O)(=O)C(F)(F)F)c5)cc4)CC3)c2)c(-c2ccc(Cl)cc2)n1C(C)C [Amorphous form XVI of meglumine salt]	0.95	0.89	0.88	0.83	1.33	1.74	1.36	1.86	4.95	physical and chemical stability (summary statement) [3]: good physical and chemical stability
Cc1c(S(C)(=O)=O)c(-c2cc(F)cc(N3CCN(c4ccc(NS(=O)(=O)c5ccc(N[C@H](CCN6CCC(C(=O)OCCCP(=O)(O)O)CC6)CSc6ccccc6)c(S(=O)(=O)C(F)(F)F)c5)cc4)CC3)c2)c(-c2ccc(Cl)cc2)n1C(C)C [Crystal form VI]										physical and chemical stability (summary statement) [4]: good physical and chemical stability; change of purity and crystal form ([4]; 25° C./60% RH and 40° C./75% RH for one week): did not change significantly; HPLC purity (Peak area %) ([4]; 25° C./60% RH, one week): 99.01 Peak area %; Solid crystal form ([4]; 25° C./60% RH, one week): Crystal form VI; HPLC purity (Peak area %) ([4]; 40° C./75% RH, one week): 99.06 Peak area %; Solid crystal form ([4]; 40° C./75% RH, one week): Crystal form VI; HPLC purity (Peak area %) ([4]; Initial sample): 99.02 Peak area %; Solid crystal form ([4]; Initial sample): Crystal form VI

Reference: patent US12528832B2, “Crystalline or amorphous form of Bcl-2/Bcl-xL inhibitor compound or its salts” (ASCENTAGE PHARMA (SUZHOU) CO., LTD., priority 2020, dated 2026)
